Legend:
hα7-wt nAChR = target: T1, hα7-wt nAChR (Homo sapiens, UniProt P36544); experiment: Ca2+ flux imaging (FDSS) (Protocol B), PAM activity with choline as agonist; assay type: cell-based; conditions: for EC50: "<5" = no top plateau at maximal concentration; for Emax: read-out: % efficacy
T1 construct: expressed in transfected cells
Method: • Hanks buffered saline solution (HBSS, Invitrogen, Belgium), supplemented with 10 mM HEPES (Invitrogen, Belgium), CaCl2 to a final concentration of 5 mM, 0.1% Bovine serum albumin (Sigma-Aldrich NV, Belgium). b) Calcium-Sensitive Dye—Fluo-4AM • Fluo-4AM (Molecular Probes, USA) was dissolved in DMSO containing 10% Pluronic acid (Molecular Probes, USA) to give a stock solution which was diluted in assay buffer supplemented with 5 mM probenicid (Sigma, Aldrich NV, Belgium) to give a final concentration of 2 μM. c) 384-Well Plates • Black 384 well plate black/clear plates, PDL pre-coated (Corning, Incorporated, USA) d) Calcium Flux Measurement
A Functional drug screening system (FDSS, Hamamatsu) was used to measure intracellular free-calcium flux signals.
Monolayers of hα7-wt nAChR-expressing cells were grown in multi-well plates, in particular black-sided, transparent bottomed 384 well plates coated with poly-D-lysine for 24 hours prior to loading with a fluorescent calcium indicator, in a particular embodiment loading with fluo-4AM for up to 120 minutes.
PAM activity was detected in real time by applying the compounds to be tested to the loaded cells along with a α7 nicotinic receptor agonist during constant monitoring of cellular fluorescence in a FDSS. Compounds giving peak fluorescent responses greater than the response due to agonist alone, were considered to be α7 nAChR PAM's. In a particular embodiment, the α7 nicotinic receptor agonist was choline, a more particular embodiment choline applied at a sub-maximal concentration of 100 μM. In a further setting of the present invention the compounds to be tested were applied prior to the α7 nicotinic receptor agonist, in a particular embodiment up to 10 minutes prior to the agonist.
A control response to choline was calculated on each plate from the difference in peak in fluorescence in wells receiving either choline or assay buffer alone. Compounds of the present invention were tested at a concentration range from 0.01 μM to 30 μM. Compounds were considered to have an interesting activity when they potentiated the choline signal at least with 500% when tested at a concentration of 30 μM (the efficacy of 100 μM choline was defined as 100% in the absence of a PAM). The compounds also have a potentiating effect on the response to choline when measured by whole-cell patch clamp electrophysiology in GH4C1 cells stably over-expressing the human wild-type α7 receptor.

T1 sequence (P36544 23-502): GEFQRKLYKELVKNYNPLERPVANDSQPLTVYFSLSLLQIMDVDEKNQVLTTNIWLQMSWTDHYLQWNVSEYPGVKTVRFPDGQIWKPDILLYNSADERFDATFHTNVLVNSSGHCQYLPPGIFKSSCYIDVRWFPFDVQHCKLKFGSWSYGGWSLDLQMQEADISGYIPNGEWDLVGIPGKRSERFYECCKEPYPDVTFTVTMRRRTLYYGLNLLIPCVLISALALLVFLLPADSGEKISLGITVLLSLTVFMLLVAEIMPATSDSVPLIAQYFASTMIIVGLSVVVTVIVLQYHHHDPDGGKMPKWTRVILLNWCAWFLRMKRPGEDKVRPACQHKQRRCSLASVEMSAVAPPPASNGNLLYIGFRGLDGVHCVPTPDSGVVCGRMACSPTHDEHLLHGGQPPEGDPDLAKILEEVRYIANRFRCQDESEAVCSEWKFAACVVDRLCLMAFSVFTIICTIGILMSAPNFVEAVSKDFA

EC50 (hα7-wt nAChR) | melting point | Emax (hα7-wt nAChR) | SMILES
50.1 nM | 177.2 °C |  | CCc1ccc(-c2nc(Nc3ccc(F)c(C(F)(F)F)c3)nn2CCC(=O)N(C)C)cn1 [Compound 128]
39.8 nM | 176.3 °C |  | CC(C)c1ccc(-c2nc(Nc3ccc(F)c(C(F)(F)F)c3)nn2CCC(=O)N(C)C)cn1 [Compound 129]
100 nM | 201.1 °C |  | CCNc1ccc(-c2nc(Nc3ccc(F)c(C(F)(F)F)c3)nn2CCC(=O)N(C)C)cn1 [Compound 130]
398 nM | 167.7 °C |  | COCCNc1ccc(-c2nc(Nc3ccc(F)c(C(F)(F)F)c3)nn2CCC(=O)N(C)C)cn1 [Compound 131]
15.8 nM | 177.3 °C |  | CN(C)C(=O)CCn1nc(Nc2ccc(F)c(C(F)(F)F)c2)nc1-c1ccc(C2CC2)nc1 [Compound 132]
100 nM | 150.9 °C |  | CN(C)C(=O)CCn1nc(Nc2ccc(F)c(C(F)(F)F)c2)nc1-c1ccc(NC2CC2)nc1 [Compound 133]
20 nM | 219.8 °C |  | CN(C)C(=O)CCn1nc(Nc2ccc(F)c(C(F)(F)F)c2)nc1-c1ccnc(NC2CC2)c1 [Compound 134]
3160 nM | 217.7 °C |  | CC(C)NC(=O)CCn1nc(Nc2ccc(F)c(C(F)(F)F)c2)nc1-c1ccncc1 [Compound 136]
> 10000 nM | 174.3 °C |  | CC(=O)NCCn1nc(Nc2ccc(F)c(C(F)(F)F)c2)nc1-c1ccncc1 [Compound 138]
1000 nM | 160.5 °C |  | CCOC(=O)NCCn1nc(Nc2ccc(F)c(C(F)(F)F)c2)nc1-c1ccnc(C)c1 [Compound 139]
631 nM | 147.2 °C |  | CCOC(=O)NCCn1nc(Nc2ccc(F)c(C(F)(F)F)c2)nc1-c1ccnc(C2CC2)c1 [Compound 140]
2510 nM | 140.3 °C |  | Cc1nc(CCn2nc(Nc3ccc(F)c(C(F)(F)F)c3)nc2-c2ccncc2)no1 [Compound 141]
2000 nM | 240.4 °C |  | COc1ccc(Nc2nc(-c3ccncc3)n(CCO)n2)cc1C(F)(F)F [Compound 143]
200 nM | 177.2 °C |  | COc1ccc(Nc2nc(-c3ccnc(C)c3)n(CCC(=O)N(C)C)n2)cc1C(F)(F)F [Compound 144]
200 nM | 211.2 °C |  | COc1ccc(Nc2nc(-c3ccncc3Cl)n(CCC(=O)N(C)C)n2)cc1C(F)(F)F [Compound 145]
1000 nM | 241.1 °C |  | CNC(=O)Cn1nc(Nc2cc(OC)cc(C(F)(F)F)c2)nc1-c1ccnc(NC)c1 [Compound 146]
5010 nM | 130.9 °C |  | Cc1cc(-c2nc(Nc3cccc(OC(F)(F)F)c3)nn2CC(C)O)ccn1 (stereo not drawn) [Compound 148]
1580 nM | 208.6 °C |  | CNC(=O)Cn1nc(Nc2cccc(OC(F)(F)F)c2)nc1-c1ccncc1NC [Compound 153]
3160 nM | 192.2 °C |  | CNC(=O)Cn1nc(Nc2cccc(OC(F)(F)F)c2)nc1-c1ccncc1F [Compound 154]
316 nM | 217 °C |  | CNC(=O)Cn1nc(Nc2cccc(OC(F)(F)F)c2)nc1-c1ccc(C2CC2)nc1 [Compound 155]
398 nM | 185.8 to 191.3 °C |  | CNC(=O)Cn1nc(Nc2cccc(OC(F)(F)F)c2)nc1-c1ccc2c(c1)OCCO2 [Compound 156]
398 nM | 222.4 °C |  | CNC(=O)Cn1nc(Nc2cccc(OC(F)(F)F)c2)nc1-c1ccc2c(c1)OCCN2C [Compound 157]
158 nM | 188.7 °C |  | CCNC(=O)Cn1nc(Nc2cccc(OC(F)(F)F)c2)nc1-c1ccc2c(c1)OCCO2 [Compound 158]
794 nM | 182.5 to 186.1 °C | 963% | COc1ccc(-c2nc(Nc3cccc(OC(F)(F)F)c3)nn2CC(=O)NC(C)C)cc1OC [Compound 159]
126 nM | 153.3 °C |  | CC(C)NC(=O)Cn1nc(Nc2cccc(OC(F)(F)F)c2)nc1-c1ccc2c(c1)OCCN2C [Compound 160]
79.4 nM | 196.5 to 206.2 °C |  | COc1cccc(-c2nc(Nc3cccc(OC(F)(F)F)c3)nn2CC(=O)NC2CC2)c1 [Compound 162]

EC50 (hα7-wt nAChR) | melting point | Emax (hα7-wt nAChR) | SMILES
631 nM | 192.7 to 195.3 °C |  | COc1ccc(-c2nc(Nc3cccc(OC(F)(F)F)c3)nn2CC(=O)NC2CC2)cc1OC [Compound 163]
2000 nM | 190.7 °C |  | Cc1cc(-c2nc(Nc3cccc(OC(F)(F)F)c3)nn2CC(=O)NC2CC2)ccn1 [Compound 164]
158 nM | 168 °C |  | CN1CCOc2cc(-c3nc(Nc4cccc(OC(F)(F)F)c4)nn3CC(=O)NC3CC3)ccc21 [Compound 165]
200 nM | 219.3 °C |  | CC1(NC(=O)Cn2nc(Nc3cccc(OC(F)(F)F)c3)nc2-c2ccc3c(c2)OCCO3)CC1 [Compound 166]
398 nM | 157.1 °C |  | CN(C)C(=O)CCn1nc(Nc2cccc(OC(F)(F)F)c2)nc1-c1ccc(N)c(F)c1 [Compound 167]
501 nM | 178.4 °C |  | CN(C)C(=O)CCn1nc(Nc2cccc(OC(F)(F)F)c2)nc1-c1ccncc1 [Compound 168]
3160 nM | 135.1 °C | 762% | CC(C)c1ccc(-c2nc(Nc3ccc(F)cc3)nn2CCO)cn1 [Compound 169]
> 10000 nM | 162.2 °C |  | CCOc1ccc(-c2nc(Nc3ccc(F)cc3)nn2CCO)cn1 [Compound 170]
2510 nM | 169.8 °C |  | OCCn1nc(Nc2ccc(F)cc2)nc1-c1ccc(C2CC2)nc1 [Compound 171]
794 nM | 200 °C | 812% | Cc1cc(-c2nc(Nc3cc(F)c(F)c(F)c3)nn2C[C@H](C)O)cc(Cl)n1 [Compound 172]
> 10000 nM | 181.7 °C | 667% | C[C@H](O)Cn1nc(Nc2ccc(F)c(F)c2)nc1-c1ccc(C(=O)N2CCCC2)nc1 [Compound 174]
3160 nM | 222.4 °C |  | CNC(=O)Cn1nc(Nc2cc(F)cc(F)c2)nc1-c1ccnc(C2CC2)c1 [Compound 179]
158 nM | 259.6 °C |  | CCNC(=O)Cn1nc(Nc2cc(F)c(F)c(F)c2)nc1-c1ccnc(NCC)c1 [Compound 180]
794 nM | 192.8 °C |  | CCNC(=O)Cn1nc(Nc2cc(F)c(F)c(NCC)c2)nc1-c1ccnc(NCC)c1 [Compound 181]
794 nM | 158.8 °C |  | Cc1cc(-c2nc(Nc3ccc(F)c(C)c3)nn2CCC(=O)N(C)C)ccn1 [Compound 184]
1000 nM | 181.3 °C |  | Cc1cc(-c2nc(Nc3ccc(F)c(F)c3)nn2CCC(=O)N(C)C)ccn1 [Compound 185]
398 nM | 203.9 °C |  | Cc1cc(-c2nc(Nc3ccc(F)c(C#N)c3)nn2CCC(=O)N(C)C)ccn1 [Compound 186]
3980 nM | 137.3 °C |  | COc1cc(Nc2nc(-c3ccnc(C)c3)n(CCC(=O)N(C)C)n2)ccc1F [Compound 187]
794 nM | 199.8 °C |  | COc1cc(Nc2nc(-c3ccnc(C)c3)n(CCC(=O)N(C)C)n2)cc(F)c1F [Compound 188]
794 nM | 166.7 °C |  | CNc1ccc(-c2nc(Nc3cc(F)c(F)cc3F)nn2CCC(=O)N(C)C)cn1 [Compound 189]
398 nM | 134.2 °C |  | CCNc1ccc(-c2nc(Nc3cc(F)c(F)cc3F)nn2CCC(=O)N(C)C)cn1 [Compound 190]
1260 nM | 194.4 °C |  | CN(C)C(=O)CCn1nc(Nc2ccc(F)c(F)c2)nc1-c1ccc(C(F)(F)F)nc1 [Compound 191]
631 nM | 149 °C |  | Cc1cc(Nc2nc(-c3ccnc(Cl)c3)n(CCC(=O)N(C)C)n2)ccc1F [Compound 192]
794 nM | 158.2 °C |  | CN(C)C(=O)CCn1nc(Nc2cc(F)c(F)cc2F)nc1-c1ccc(NC2CC2)nc1 [Compound 193]
316 nM | 114.3 to 116.3 °C |  | CN(C)C(=O)CCn1nc(Nc2cccc(F)c2)nc1-c1ccc2c(c1)OCCO2 [Compound 194]
2510 nM | 167.9 °C |  | CCNc1cc(-c2nc(Nc3ccc4c(c3)OC(F)(F)O4)nn2CC(C)O)ccn1 (stereo not drawn) [Compound 199]

Reference: patent publication US8143419B2, “Trisubstituted 1,2,4-triazoles” (Janssen Pharmaceutica N. V., priority 2006, dated 2012)
